Measured values reported in US20130052162A1, “BOOSTING IMMUNE DEFENSE BY UPREGULATING CCAAT/ENHANCER BINDING PROTEIN EPSILON” (CEDARS-SINAI MEDICAL CENTER, priority 2010, published 2013).
Values joined by “and” are separate entries in the source; they are usually repeats but may differ in a detail not shown here. Identical values can stand only once. “Also recorded” adds a separate entry of the source.

Experiments:
[1] = tested on: CEBPE promoter region; assay: ChIP: histone H3 acetylation at CEBPE promoter in BMDM; format: cell-based, mouse; details: WT BMDM, 1 mM NAM, 6-12 h, vs untreated, densitometry
Method: (§1) ChIP assay kit (Upstate Biotechnology, Lake Placid, N.Y.) was used, and chromatin was prepared for IP as instructed by the manufacturer. The sonicated chromatin was immunoprecipitated with either 5 μg of anti-acetylated histone H3 antibody or normal rabbit IgG antibody as negative control (Upstate Biotechnology). Immunoprecipitated DNA was subsequently analyzed by PCR using primers specific for the CEBPE promoter region; input chromatin was analyzed for β-actin mRNA as a positive control. The optimal reaction conditions for PCR were determined for each primer pair. Primers were denatured at 95° C. for 1 min and annealed at 60° C. for 1 min, followed by elongation at 72° C. for 1 min; each product was amplified 35 cycles. PCR products were analyzed by 2.5% agarose/ethidium bromide gel electrophoresis. […] The primers used for ChIP analysis were: human CEBPE 5′-GCTTTGGCCAAGCCCAGGGA-3′ (forward) (SEQ ID NO: 9), 5′-TGCTGGGCTCCACCTACCCC-3′ (reverse) (SEQ ID NO: 10); human β-actin: 5′-CTCCTCGGGAGCCACACGCA-3′ (forward) (SEQ ID NO: 1), 5′-TAGGGGAGCTGGCTGGGTGG-3′ (reverse) (SEQ ID NO: 12); murine CEBPE: 5′-TGAGGCTGCAGCTTGCCTGG-3′ (forward) (SEQ ID NO: 13), 5′-ACCAAGCTACCCCTGGCCCT-3′ (reverse) (SEQ ID NO: 14), murine β-actin: 5′-ACCTGTTACTTTGGGAGTGGCAAGC-3′ (forward) (SEQ ID NO: 15), 5′-GTCGTCCCAGTTGCTAACAATGCC-3′ (reverse) (SEQ ID NO: 16).

[2] = tested on: S. aureus; assay: Murine peripheral whole blood killing assay; format: cell-based, mouse
[3] = CBC of peripheral whole blood of WT mice treated in vivo with NAM; design: species or system mouse
Method: WT mice treated in vivo with NAM (250 mg/kg/day; i.p.) or PBS (control) for a) 24 h, b) 48 h, and c) 72 h. Then, peripheral whole blood was removed from each of the mice and CBCs were performed. […] (Table 2A-C)

[4] = tested on: LF-promoter; assay: LF reporter gene (LAC-LUC) luciferase assay in U937 cells; format: cell-based, human; details: 1 mM NAM, 16 h, vs PBS
Method: The inventors designed a −230 LF promoter reporter plasmid (LAC-LUC) including a C/EBP-binding site as previously described^15. For the reporter gene assay, 2×10^6 […] cells were transiently transfected either with 2 μg of the LAC-LUC luciferase reporter gene constructs or the empty-vector control (pGL3, Promega, Madison, Wis., USA), as well as 0.2 μg of Renilla luciferase (pRL-SV40). Transfections were performed using the nucleofection technique with the Amaxa-Kit (Invitrogen, Karlsruhe, Germany) according to the manufacturer's instructions. After 16 h of transfection, the cells were treated with NAM (1 mM) for an additional 16 h. The lysates were harvested and luciferase activity measured by the Dual-Luciferase reporter assay system (Promega, Madison, Wis., USA). For all transfection studies, luciferase activity was normalized using pRL-SV40 activity. Results represent the mean of three independent experiments performed in triplicate.

[5] = tested on: S. aureus; assay: Effect of NAM on growth and viability of S. aureus; format: cell-based, Staphylococcus aureus; details: 6 h
Method: The inventors assessed whether NAM, at the concentrations used in the study, adversely affect the growth and viability of S. aureus. PBS was chosen as an inert non-growth medium, and THB was chosen as a suitable growth medium for S. aureus. Seventy-five microliters of NAM (1 mM and 10 mM final concentrations; in either THB or PBS) or THB or PBS alone (respective controls) were placed in sterile 2 mL round-bottom Eppendorf tubes, and then inoculated with S. aureus (˜1×10^4 CFU/mL in 25 μl of PBS or THB) and immediately briefly vortexed. Triplicate reactions were incubated at 37° C. for 1 h, 3 h, and 6 h on a rotary shaker at which time ten-fold serial dilutions were plated on THIA for enumeration of CFU.
In a different assay, S. aureus (˜1×10^8 CFU/mL in THB) was incubated with or without 50 mM NAM. This concentration represents the equivalent molarity of NAM used in the in vivo experiments. Triplicate 1 mL reactions were incubated at 37° C. on a rotary shaker and at various time points (6 h, 12 h, and 24 h) ten-fold serial dilutions were plated on THA for enumeration of CFU. This assay was performed on two independent occasions using inocula generated from three separate bacterial cultures.

[6] = tested on: CEBPE promoter region; assay: ChIP: histone H3 acetylation at CEBPE promoter in human PMNs from NAM-treated blood; format: cell-based; details: blood treated with 1 mM NAM, 12 h
Method: as §1, with “16). […]” for “16).”

[7] = human trials, patients undergoing radiotherapy; cited from earlier work
[8] = 24 h post-treatment, 250 mg/kg/d, individual mice, 250 mg/kg/day

NC(=O)c1cccnc1 [NAM, Nicotinamide]
increase in histone H3 acetylation at the CEBPE promoter [1]: 5 fold
CFU recovered, NAM- vs PBS-treated blood ([2]; C/EBPε−/− blood, 1 mM NAM 24 h, 1 h and 3 h of infection): no impact; also recorded: not statistically different
CFU recovered, NAM- vs PBS-treated blood ([2]; WT blood, 1 mM NAM 24 h, 1 h and 3 h of infection): Significantly less CFU
enhanced killing of S. aureus vs PBS ([2]; WT blood, 1 mM NAM pretreatment 24 h): more than 3 log10
CFU recovered, NAM- vs PBS-treated blood ([2]; WT blood, 1 mM NAM pretreatment for only 4 h): did not result in CFU differences
Hematological Abnormalities ([3]; 24 h post-treatment, 250 mg/kg/d, individual mice): Normal
LY [3, 8]: 3.97 K/uL and 1.89 K/uL and 3.84 K/uL and 76.92% and 67.88% and 71.36%
MO [3, 8]: 0.18 K/uL and 0.28 K/uL and 3.77% and 6.47% and 5.28%
NE [3, 8]: 0.95 K/uL and 0.65 K/uL and 1.00 K/uL and 18.47% and 23.40% and 18.67%
WBC [3, 8]: 5.16 K/uL and 2.78 K/uL and 5.38 K/uL
WBC, Mean ([3]; 24 h post-treatment, 250 mg/kg/d, mean of 10 mice): 3.63 K/uL
Hematological Abnormalities ([3]; 48 h post-treatment, 250 mg/kg/d, individual mice): Normal
WBC ([3]; 48 h post-treatment, 250 mg/kg/d, individual mice, 250 mg/kg/day): 6.34 K/uL and 1.86 K/uL and 3.30 K/uL and 4.64 K/uL and 2.70 K/uL
WBC, Mean ([3]; 48 h post-treatment, 250 mg/kg/d, mean of 5 mice): 3.77 K/uL
Hematological Abnormalities ([3]; 72 h post-treatment, 250 mg/kg/d, individual mice): Normal
WBC ([3]; 72 h post-treatment, 250 mg/kg/d, individual mice, 250 mg/kg/day): 2.20 K/uL and 4.08 K/uL and 5.66 K/uL and 2.24 K/uL and 3.62 K/uL and 6.22 K/uL and 3.06 K/uL and 5.48 K/uL
WBC, Mean ([3]; 72 h post-treatment, 250 mg/kg/d, mean of 8 mice): 4.07 K/uL
CBCs, NAM- vs PBS-treated mice ([3]; mouse, in vivo): No differences in CBCs
increase in LF reporter gene activity [4]: 2.5 fold
direct anti-staphylococcal activity (CFU vs control) ([5]; 1 mM and 10 mM NAM in THB or PBS, 1 h, 3 h, no phagocytic cells): no direct anti-staphylococcal activity; also recorded: No differences
direct anti-staphylococcal activity (CFU vs control) ([5]; 50 mM NAM in THB, 12 h, 24 h): No difference in CFU
increase in histone H3 acetylation at the CEBPE promoter [6]: 5 fold
plasma concentration routinely achieved [7]: 1000 µM
